Among the test systems are A549 NSCLC; OVCAR-8 ovarian; NCI-H522 lung; SNB-75 CNS; OVCAR-3 ovarian; EKVX NSCLC; TK-10 renal; SN12C renal; ACHN renal.
Holding throughout (assay): inhibition of tumour cell growth, NCI panel, 48 h

We go through 15 compounds from PubChem BioAssay (NCI).

Molecules are shown by their SMILES.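 In this assay, cells in 96-well plates receive the compound at five concentrations for 48 hours. Endpoints are linearly interpolated between the surrounding concentrations. The concentration for 50% growth inhibition is given as GI50. TGI: concentration producing complete growth inhibition.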

As for `O=C(O)c1cc(Cl)cc(NC(=O)C(Cl)Cl)c1Cl`, the TGI in the assay on A549 NSCLC, in the assay on OVCAR-8 ovarian, in the assay on NCI-H522 lung, with SNB-75 CNS, in the assay with OVCAR-3 ovarian and in the assay on EKVX NSCLC was over 100 µM in each case. For the same compound, the TGI in the assay with TK-10 renal, in the assay with SN12C renal and in the assay on ACHN renal was over 100 µM each time.

Consider `c1ccc2c(c1)CCCc1cc3ccccc3nc1-2`, for which the TGI with A549 NSCLC, in the assay on OVCAR-8 ovarian, with NCI-H522 lung, with SNB-75 CNS, in the assay on OVCAR-3 ovarian and in the assay with EKVX NSCLC was over 100 µM throughout. Also, the TGI with TK-10 renal, in the assay on SN12C renal and in the assay with ACHN renal was over 100 µM throughout.

On to `O=C1[C@H]2C(c3ccccc3)=NN(C(=O)c3ccccc3)[C@H]2C(=O)N1c1ccccc1`, for which the TGI in the assay with A549 NSCLC, in the assay with OVCAR-8 ovarian, with NCI-H522 lung, in the assay on SNB-75 CNS, in the assay on OVCAR-3 ovarian and in the assay with EKVX NSCLC was over 100 µM in each case. Further, the TGI in the assay with TK-10 renal, in the assay on SN12C renal and in the assay on ACHN renal was over 100 µM throughout.

Consider `O=C(CCCCCCCCCCc1ccccc1)c1c(O)cccc1O`, for which the TGI is 76.1 µM in the assay on A549 NSCLC; 38.1 µM in the assay with OVCAR-8 ovarian; 42.4 µM in the assay with NCI-H522 lung; 63.8 µM with SNB-75 CNS; 63.1 µM in the assay with OVCAR-3 ovarian; 48.7 µM in the assay with EKVX NSCLC. The TGI in the assay with TK-10 renal was over 100 µM; with SN12C renal it was 34.6 µM; in the assay on ACHN renal it was 69.9 µM.

For the compound `N#Cc1c2c(c(N=[N+]=[N-])n3c1nc1ccccc13)CCCC2`, the TGI in the assay on A549 NSCLC worked out at 17 µM; in the assay on OVCAR-8 ovarian, 3.09 µM; with SNB-75 CNS it was 4.04 µM; with OVCAR-3 ovarian, 10.3 µM; in the assay with EKVX NSCLC it was 30.9 µM; with TK-10 renal, 5.76 µM. In addition, the TGI in the assay on SN12C renal was 4.22 µM; in the assay with ACHN renal it was 5.46 µM.

On to `CCOC(=O)/C=C1\Nc2ccccc2C(c2ccccc2)=NC1OC(C)=O` (stereo not drawn), for which the TGI in the assay on A549 NSCLC, in the assay with OVCAR-8 ovarian, with NCI-H522 lung, with SNB-75 CNS, with OVCAR-3 ovarian and in the assay on EKVX NSCLC was over 100 µM in each case. Also, the TGI with SN12C renal and in the assay with ACHN renal was over 100 µM throughout.

Take `CCC1OCCN1C(C)C` (stereo not drawn): the TGI with A549 NSCLC is over 100 µM; in the assay on OVCAR-8 ovarian, over 100 µM; in the assay on NCI-H522 lung it was over 100 µM; in the assay on EKVX NSCLC, 86.8 µM; in the assay on TK-10 renal, over 100 µM; in the assay with SN12C renal, over 100 µM. The compound further had a TGI in the assay on ACHN renal of over 100 µM.

On to `Cc1cc(N(CCC#N)S(=O)(=O)c2ccccc2)ccc1C=O`, for which the TGI with A549 NSCLC, in the assay on OVCAR-8 ovarian, in the assay with NCI-H522 lung, with SNB-75 CNS, in the assay on OVCAR-3 ovarian and with EKVX NSCLC was over 100 µM each time. Besides, the TGI with SN12C renal and in the assay on ACHN renal was over 100 µM in each case.

Regarding `COc1cc2ccn3c4cc(OC)c(OC)cc4cc3c2cc1OC`, the TGI in the assay on A549 NSCLC, in the assay with OVCAR-8 ovarian, in the assay with NCI-H522 lung, in the assay with SNB-75 CNS, in the assay with OVCAR-3 ovarian and in the assay with EKVX NSCLC was over 100 µM each time. The TGI in the assay on TK-10 renal, in the assay on SN12C renal and in the assay on ACHN renal was over 100 µM each time.

Regarding `CC1CCC(O)C(C(O)CC2CC(=O)N(C)C(=O)C2)C1` (stereo not drawn), the TGI in the assay on A549 NSCLC, in the assay with OVCAR-8 ovarian, in the assay on NCI-H522 lung, in the assay on SNB-75 CNS, in the assay on OVCAR-3 ovarian and in the assay on EKVX NSCLC was over 100 µM in each case. For the same compound, the TGI with TK-10 renal, with SN12C renal and in the assay on ACHN renal was over 100 µM throughout.

Regarding `Clc1ccc2c(Cl)ncnc2c1`, the TGI with A549 NSCLC, in the assay with OVCAR-8 ovarian, with NCI-H522 lung, in the assay with SNB-75 CNS, in the assay with OVCAR-3 ovarian and in the assay on EKVX NSCLC was over 100 µM in each case. Besides, the TGI in the assay with TK-10 renal, with SN12C renal and in the assay on ACHN renal was over 100 µM in each case.

Consider `COC(=O)c1c(C)oc2ccc(OC(C)=O)cc12`, for which the TGI in the assay with A549 NSCLC, in the assay on OVCAR-8 ovarian, in the assay on NCI-H522 lung, with SNB-75 CNS, in the assay with OVCAR-3 ovarian and in the assay on EKVX NSCLC was over 100 µM in each case. Besides, the TGI with TK-10 renal, in the assay with SN12C renal and in the assay on ACHN renal was over 100 µM each time.

`Brc1ccc2c(c1)C1(c3cc(Br)ccc3-2)c2cc(Br)ccc2-c2ccc(Br)cc21`: the TGI with A549 NSCLC, in the assay on OVCAR-8 ovarian, in the assay on NCI-H522 lung, in the assay with OVCAR-3 ovarian, in the assay on EKVX NSCLC and with TK-10 renal was over 100 µM throughout. The TGI in the assay on SN12C renal and in the assay on ACHN renal was over 100 µM throughout.

As to `CC1=CC2=C(C)C3(CC3)[C@@](C)(O)C(=O)C2=C1`, the TGI was over 0.975 µM in the assay on A549 NSCLC; 0.706 µM with OVCAR-8 ovarian; 0.296 µM in the assay on NCI-H522 lung; 0.425 µM in the assay with SNB-75 CNS; 0.352 µM in the assay on OVCAR-3 ovarian; 0.992 µM in the assay with EKVX NSCLC. Also, the TGI with TK-10 renal was 0.89 µM; in the assay on SN12C renal, 0.557 µM; with ACHN renal, 0.379 µM.

As to `CC(C)OP(=O)(OC(C)C)C(N(C)C)P(=O)(OC(C)C)OC(C)C.[Cl][Sn]([Cl])([Cl])[c]1ccccc1`, the GI50 is 2.21 µM in the assay with A549 NSCLC; 3.16 µM in the assay with OVCAR-8 ovarian; 3.02 µM in the assay on NCI-H522 lung; 4.01 µM with SNB-75 CNS; 5.64 µM in the assay with OVCAR-3 ovarian; 3.49 µM in the assay with EKVX NSCLC. The values for the GI50 with TK-10 renal, with SN12C renal and in the assay with ACHN renal were 14.4 µM, 4.13 µM and 3.3 µM, respectively. Moreover, the TGI with A549 NSCLC came out at 5.28 µM; in the assay on OVCAR-8 ovarian, 13.2 µM; with NCI-H522 lung, 9.78 µM; with SNB-75 CNS, 39.5 µM; in the assay with OVCAR-3 ovarian, 53 µM; with EKVX NSCLC, 52.5 µM. The TGI with TK-10 renal, in the assay on SN12C renal and with ACHN renal was over 100 µM in each case.
